± gives the expanded uncertainty stated by the source.
Experiments:
[1] = 101.3 kPa, Liquid; for speed of sound: Linear variable-path acoustic interferometer; for mass density: Pycnometric method
[2] = xn = mol fraction of the nth substance listed; settings: 101 kPa, Liquid; for speed of sound: Linear variable-path acoustic interferometer; for mass density: Pycnometric method

CCN(CC)c1ccccc1 [N,N-diethylaniline]
[1]
Settings | mass density [kg/m3] | speed of sound [m/s]
303.15 K | 926.2 ± 0.3 | 1434 ± 3
313.15 K | 917.6 ± 0.3 | 1396 ± 3
323.15 K | 909.2 ± 0.4 | 1358 ± 3

CCN(CC)c1ccccc1 [N,N-diethylaniline] + C1CCOC1
[2]
Settings | mass density, 303.15 K [kg/m3] | mass density, 313.15 K [kg/m3] | mass density, 323.15 K [kg/m3] | speed of sound, 303.15 K [m/s] | speed of sound, 313.15 K [m/s] | speed of sound, 323.15 K [m/s]
x2 = 0 | 926.2 ± 0.3 | 917.6 ± 0.3 | 909.2 ± 0.4 | 1434 ± 3 | 1396 ± 3 | 1358 ± 3
x2 = 0.0933 | 923.9 ± 0.3 | 915.7 ± 0.3 | 907.8 ± 0.4 | 1428 ± 3 | 1390 ± 3 | 1354 ± 3
x2 = 0.1907 | 921.2 ± 0.3 | 913.3 ± 0.3 | 905.7 ± 0.4 | 1418 ± 3 | 1379 ± 3 | 1343 ± 3
x2 = 0.2899 | 918.2 ± 0.3 | 910.4 ± 0.3 | 903 ± 0.4 | 1405 ± 3 | 1366 ± 3 | 1330 ± 3
x2 = 0.3879 | 914.9 ± 0.3 | 907.1 ± 0.3 | 899.6 ± 0.4 | 1390 ± 3 | 1351 ± 3 | 1315 ± 2
x2 = 0.4892 | 910.8 ± 0.3 | 903.2 ± 0.3 | 895.3 ± 0.4 | 1372 ± 3 | 1333 ± 3 | 1296 ± 2
x2 = 0.5937 | 906 ± 0.3 | 898.4 ± 0.3 | 890.5 ± 0.4 | 1352 ± 3 | 1312 ± 2 | 1275 ± 2
x2 = 0.6904 | 900.9 ± 0.3 | 893.1 ± 0.3 | 885.1 ± 0.4 | 1331 ± 3 | 1291 ± 2 | 1252 ± 2
x2 = 0.7948 | 894.3 ± 0.3 | 886.2 ± 0.3 | 878.1 ± 0.3 | 1307 ± 2 | 1265 ± 2 | 1226 ± 2
x2 = 0.8935 | 886.9 ± 0.3 | 877.9 ± 0.3 | 869.2 ± 0.3 | 1283 ± 2 | 1240 ± 2 | 1200 ± 2

CCN(CC)c1ccccc1 [N,N-diethylaniline] + CC(C)OC(C)C
[2]
Settings | mass density, 303.15 K [kg/m3] | mass density, 313.15 K [kg/m3] | mass density, 323.15 K [kg/m3] | speed of sound, 303.15 K [m/s] | speed of sound, 313.15 K [m/s] | speed of sound, 323.15 K [m/s]
x2 = 0 | 926.2 ± 0.3 | 917.6 ± 0.3 | 909.2 ± 0.4 | 1434 ± 3 | 1396 ± 3 | 1358 ± 3
x2 = 0.078 | 914.4 ± 0.3 | 906.8 ± 0.3 | 899 ± 0.4 | 1403 ± 3 | 1367 ± 3 | 1332 ± 3
x2 = 0.1606 | 901 ± 0.3 | 893.6 ± 0.3 | 886.6 ± 0.4 | 1370 ± 3 | 1336 ± 3 | 1302 ± 2
x2 = 0.2581 | 884 ± 0.3 | 876.7 ± 0.3 | 870.2 ± 0.3 | 1330 ± 3 | 1296 ± 2 | 1261 ± 2
x2 = 0.3421 | 868.5 ± 0.3 | 861.1 ± 0.3 | 854.7 ± 0.3 | 1295 ± 2 | 1260 ± 2 | 1224 ± 2
x2 = 0.4336 | 850.7 ± 0.3 | 843 ± 0.3 | 836.7 ± 0.3 | 1255 ± 2 | 1218 ± 2 | 1182 ± 2
x2 = 0.5341 | 829.8 ± 0.3 | 822.1 ± 0.3 | 815.7 ± 0.3 | 1209 ± 2 | 1171 ± 2 | 1134 ± 2
x2 = 0.6457 | 804.7 ± 0.3 | 797.1 ± 0.3 | 790.6 ± 0.3 | 1156 ± 2 | 1117 ± 2 | 1080 ± 2
x2 = 0.7545 | 778.3 ± 0.3 | 770.6 ± 0.3 | 764 ± 0.3 | 1103 ± 2 | 1063 ± 2 | 1023 ± 2
x2 = 0.8762 | 746.7 ± 0.3 | 738.3 ± 0.3 | 730.8 ± 0.3 | 1042 ± 2 | 1000 ± 2 | 958 ± 2

CN(C)c1ccccc1 [N,N-dimethylaniline]
[1]
Settings | mass density [kg/m3] | speed of sound [m/s]
303.15 K | 948.4 ± 0.3 | 1468 ± 3
313.15 K | 939.8 ± 0.3 | 1431 ± 3
323.15 K | 931.5 ± 0.4 | 1393 ± 3

CN(C)c1ccccc1 [N,N-dimethylaniline] + C1CCOC1
[2]
Settings | mass density, 303.15 K [kg/m3] | mass density, 313.15 K [kg/m3] | mass density, 323.15 K [kg/m3] | speed of sound, 303.15 K [m/s] | speed of sound, 313.15 K [m/s] | speed of sound, 323.15 K [m/s]
x2 = 0 | 948.4 ± 0.3 | 939.8 ± 0.3 | 931.5 ± 0.4 | 1468 ± 3 | 1431 ± 3 | 1393 ± 3
x2 = 0.0683 | 945.8 ± 0.3 | 937.5 ± 0.3 | 929.5 ± 0.4 | 1459 ± 3 | 1424 ± 3 | 1391 ± 3
x2 = 0.1883 | 940.8 ± 0.3 | 932.9 ± 0.3 | 925.2 ± 0.4 | 1439 ± 3 | 1408 ± 3 | 1376 ± 3
x2 = 0.2797 | 936.7 ± 0.3 | 928.6 ± 0.3 | 921.1 ± 0.4 | 1423 ± 3 | 1391 ± 3 | 1359 ± 3
x2 = 0.389 | 931 ± 0.3 | 922.9 ± 0.3 | 915.3 ± 0.4 | 1403 ± 3 | 1370 ± 3 | 1337 ± 3
x2 = 0.4723 | 926.2 ± 0.3 | 918 ± 0.3 | 910.2 ± 0.4 | 1387 ± 3 | 1354 ± 3 | 1319 ± 2
x2 = 0.5757 | 919.3 ± 0.3 | 911.1 ± 0.3 | 903 ± 0.4 | 1365 ± 3 | 1331 ± 3 | 1294 ± 2
x2 = 0.6813 | 910.9 ± 0.3 | 902.8 ± 0.3 | 894.4 ± 0.4 | 1340 ± 3 | 1304 ± 2 | 1267 ± 2
x2 = 0.7866 | 901.1 ± 0.3 | 893.2 ± 0.3 | 884.2 ± 0.4 | 1314 ± 2 | 1276 ± 2 | 1238 ± 2
x2 = 0.8909 | 890.1 ± 0.3 | 881.4 ± 0.3 | 871.7 ± 0.3 | 1287 ± 2 | 1246 ± 2 | 1206 ± 2

CN(C)c1ccccc1 [N,N-dimethylaniline] + CC(C)OC(C)C
[2]
Settings | mass density, 303.15 K [kg/m3] | mass density, 313.15 K [kg/m3] | mass density, 323.15 K [kg/m3] | speed of sound, 303.15 K [m/s] | speed of sound, 313.15 K [m/s] | speed of sound, 323.15 K [m/s]
x2 = 0 | 948.4 ± 0.3 | 939.8 ± 0.3 | 931.5 ± 0.4 | 1468 ± 3 | 1431 ± 3 | 1393 ± 3
x2 = 0.0741 | 932.6 ± 0.3 | 924.8 ± 0.3 | 916.9 ± 0.4 | 1430 ± 3 | 1396 ± 3 | 1360 ± 3
x2 = 0.1589 | 914 ± 0.3 | 906.5 ± 0.3 | 898.6 ± 0.4 | 1385 ± 3 | 1353 ± 3 | 1318 ± 2
x2 = 0.2428 | 895.3 ± 0.3 | 887.5 ± 0.3 | 879.6 ± 0.4 | 1342 ± 3 | 1311 ± 2 | 1277 ± 2
x2 = 0.3355 | 874.3 ± 0.3 | 866.2 ± 0.3 | 858.3 ± 0.4 | 1296 ± 2 | 1262 ± 2 | 1229 ± 2
x2 = 0.4294 | 852.6 ± 0.3 | 844.2 ± 0.3 | 836.3 ± 0.4 | 1250 ± 2 | 1214 ± 2 | 1182 ± 2
x2 = 0.5338 | 827.8 ± 0.3 | 819.2 ± 0.3 | 811.5 ± 0.3 | 1199 ± 2 | 1161 ± 2 | 1128 ± 2
x2 = 0.6362 | 802.8 ± 0.3 | 794.1 ± 0.3 | 786.4 ± 0.3 | 1149 ± 2 | 1112 ± 2 | 1078 ± 2
x2 = 0.7466 | 775.2 ± 0.3 | 766.4 ± 0.3 | 758.5 ± 0.3 | 1096 ± 2 | 1059 ± 2 | 1024 ± 2
x2 = 0.8676 | 744.8 ± 0.3 | 735.7 ± 0.3 | 726.9 ± 0.3 | 1038 ± 2 | 1000 ± 2 | 961 ± 2

CC(C)OC(C)C [diisopropyl ether]
[1]
Settings | mass density [kg/m3] | speed of sound [m/s]
303.15 K | 712.9 ± 0.3 | 976 ± 2
313.15 K | 702.5 ± 0.3 | 932 ± 2
323.15 K | 691.9 ± 0.3 | 889 ± 2

CC(C)OC(C)C [diisopropyl ether] + CCN(CC)c1ccccc1
[2], x1 = 1
Settings | mass density [kg/m3] | speed of sound [m/s]
303.15 K | 712.9 ± 0.3 | 976 ± 2
313.15 K | 702.5 ± 0.3 | 932 ± 2
323.15 K | 691.9 ± 0.3 | 889 ± 2

CC(C)OC(C)C [diisopropyl ether] + CN(C)c1ccccc1
[2], x1 = 1
Settings | mass density [kg/m3] | speed of sound [m/s]
303.15 K | 712.9 ± 0.3 | 976 ± 2
313.15 K | 702.5 ± 0.3 | 932 ± 2
323.15 K | 691.9 ± 0.3 | 889 ± 2

C1CCOC1 [tetrahydrofuran]
[1]
Settings | mass density [kg/m3] | speed of sound [m/s]
303.15 K | 876.9 ± 0.3 | 1254 ± 2
313.15 K | 865.7 ± 0.3 | 1207 ± 2
323.15 K | 854.8 ± 0.3 | 1165 ± 2

C1CCOC1 [tetrahydrofuran] + CCN(CC)c1ccccc1
[2], x1 = 1
Settings | mass density [kg/m3] | speed of sound [m/s]
303.15 K | 876.9 ± 0.3 | 1254 ± 2
313.15 K | 865.7 ± 0.3 | 1207 ± 2
323.15 K | 854.8 ± 0.3 | 1165 ± 2

C1CCOC1 [tetrahydrofuran] + CN(C)c1ccccc1
[2], x1 = 1
Settings | mass density [kg/m3] | speed of sound [m/s]
303.15 K | 876.9 ± 0.3 | 1254 ± 2
313.15 K | 865.7 ± 0.3 | 1207 ± 2
323.15 K | 854.8 ± 0.3 | 1165 ± 2

Source: the NIST ThermoML archive (doi:10.1016/j.tca.2011.02.004)
